Tests used:
[1] = tested on: HepG2 cells; test: MTT cytotoxicity assay, HepG2; type: cell-based, human
Source text: According to our previous data and data published by other research groups, chemical transformations of bile acids can greatly improve their antitumor potential. Thus, as the first step of evaluation of the biological activities of our novel DCA derivatives we assessed their effects on tumor cell viability. The cytotoxicity of the compounds was investigated with respect to a panel of cultured cell lines, including human duodenal HuTu-80, hepatocellular HepG2, cervical KB-3-1 and lung A549 carcinomas as well as murine macrophage RAW264.7 and non-transformed human fibroblasts hFF3 by MTT assay.
Human duodenal carcinoma HuTu-80 cells, human hepatocellular carcinoma HepG2 cells, human cervical carcinoma KB-3-1 cells, human lung carcinoma A549 cells were obtained from the Russian Cell Culture Collection (Institute of Cytology, RAS, St. Petersburg, Russia). Non-transformed human fibroblasts hFF3 were kindly provided by Dr. Olga Koval (Institute of Chemical Biology and Fundamental Medicine, SB RAS, Novosibirsk, Russia). RAW264.7 macrophages were kindly provided by Prof. Dr. Dmitry Kuprash (Engelhardt Institute of Molecular Biology, RAS, Moscow, Russia). The cells were cultured in DMEM (Sigma-Aldrich Inc., St. Louis, MO, USA) supplemented with 10% (v/v) heat-inactivated fetal bovine serum (FBS) (BioloT, St. Petersburg, Russia), 100 U/mL penicillin (ICN Biomedicals Inc., Costa Mesa, CA, USA), 100 µg/mL streptomycin and 0.25 µg/mL amphotericin; additionally, in the case of RAW264.7 cells, concentration of glucose in the medium was increased up to 4.5 mg/mL. The cells were incubated at 37 °C in 5% CO2 and 95% air (hereafter referred to as standard conditions). DCA derivatives were dissolved in DMSO to yield stock solutions of 10 mmol/L and stored at −20 °C prior to use.
Cells were seeded in triplicate in 96-well plates at a density of 5 × 10^3 (HuTu-80, HepG2, KB-3-1, hFF3), 10^4 (A549) or 5 × 10^4 (RAW264.7) cells per well. Cells were incubated under standard conditions for 24 h and then they were treated with varying doses of investigated derivatives for subsequent 24 h. Then 10 µL of MTT solution (5 mg/mL) were added to each wells and cells were incubated for an additional 2 h under standard conditions. The crystals of formazan forming within live cells were solubilized with DMSO and the absorbance was measured in a Multiscan RC plate reader (Thermo LabSystems, Helsinki, Finland) at a test and reference wavelengths of 570 nm and 620 nm, respectively. […] To perform SAR analysis, hierarchical clustering of compounds based on their IC50 values was fulfilled with Euclidean distance by using the Morpheus tool (https://software.broadinstitute.org/morpheus/), a platform designed for visualization and analysis of data in a matrix format. Heatmap, containing compounds’ SI values, were constructed by using the Excel 2010 software (Microsoft, Redmond, WA, USA). In order to reveal whether ROS participate in the induction of cell death by compound 9, HuTu-80 cells cultured in 96-well plate were pretreated by NAC at 2 mM for 1 h. Thereafter, the medium was replaced by fresh medium with compound 9 at 8 µM and the cells were incubated with subsequent 24 h under standard conditions. After this time period, the curves of cytotoxicity of compound 9 in the presence or absence of NAC were compared.

[2] = tested on: NO synthesis by IFNγ-activated RAW264.7 cells; test: Inhibition of NO production by stimulated macrophages (Griess); type: cell-based, murine; conditions: Mus musculus, RAW264.7, 24 h, read-out: IC50NO
Description: RAW264.7 cells were seeded in triplicate in 96-well plates at a density of 5 × 10^4 cells/well and incubated under standard conditions for 24 h. The cells were treated with 20 ng/mL of murine recombinant IFNγ (GIBCO, Gaithersburg, MD, USA), with or without (control) compounds at various concentrations for 24 h. The level of NO production was evaluated by determining the nitrite concentration in culture medium with a Griess Reagent System (Promega, Madison, WI, USA). The IC50^NO value was calculated as the derivative concentration required to decrease NO production to 50% of the non-treated control.

COC(=O)CC[C@@H](C)[C@H]1CC[C@H]2[C@@H]3CC[C@@H]4CC(O)(CNCCCO)CC[C@]4(C)[C@H]3CC(=O)[C@]12C (stereo partly drawn) [Compound 9, Methyl 3-hydroxy-3-((3-hydroxypropylamino)methyl)-12-oxo-5β-cholan-24-oate]
IC50 ([1]; Homo sapiens, HepG2, MTT, 24 h, read-out: IC50 HepG2 (liver)): 7.3 ± 0.6 µM
Selectivity index HepG-2 ([1]; ratio IC50 hFF3 / IC50 HepG2): 4.5
IC50 [2]: > 10 µM

Source: article PMC6681416, “Novel Derivatives of Deoxycholic Acid Bearing Linear Aliphatic Diamine and Aminoalcohol Moieties and their Cyclic Analogs at the C3 Position: Synthesis and Evaluation of Their In Vitro Antitumor Potential” (Molecules, 2019)
